Paper PMC10692381 (Acta Pharmaceutica Sinica. B, 2023)

Biological target: PRMT3 (Homo sapiens, UniProt O60678)
Assay: Fluorescence-based SAHH-coupled PRMT3 methylation assay
Format: biochemical

Sequence of PRMT3 (O60678 211-531): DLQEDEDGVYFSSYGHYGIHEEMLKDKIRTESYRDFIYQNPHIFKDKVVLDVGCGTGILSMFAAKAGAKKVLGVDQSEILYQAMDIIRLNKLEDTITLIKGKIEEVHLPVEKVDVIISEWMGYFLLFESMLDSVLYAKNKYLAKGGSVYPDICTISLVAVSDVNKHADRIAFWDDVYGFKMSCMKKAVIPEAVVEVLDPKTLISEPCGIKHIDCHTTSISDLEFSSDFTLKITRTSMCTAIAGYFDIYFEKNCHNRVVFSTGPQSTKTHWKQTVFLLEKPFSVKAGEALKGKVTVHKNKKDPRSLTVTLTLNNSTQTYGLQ

SMILES	fold reduction in PRMT3 inhibition (compared to YD1113)	further results
Nc1ncnc2c1ncn2[C@@H]1O[C@H](CSCCNC(=O)NCc2ccccc2)[C@@H](O)[C@H]1O [Compound 1c]		fold increased inhibition for PRMT3 (compared to 1b (linker 3C to 2C)): 140 fold
Nc1ncnc2c1ncn2[C@@H]1O[C@H](CSCCNC(=O)NCc2ccc(F)cc2)[C@@H](O)[C@H]1O [Compound 1e]	over 10 fold	
Nc1ncnc2c1ncn2[C@@H]1O[C@H](CSCCNC(=O)Nc2ccccc2)[C@@H](O)[C@H]1O [Compound 1h]	4 fold	
Nc1ncnc2c1ncn2[C@@H]1O[C@H](CSCCNC(=O)Nc2ccc(F)cc2)[C@@H](O)[C@H]1O [Compound 1i]	4 fold	
Nc1ncnc2c1ncn2[C@@H]1O[C@H](CSCCNC(=O)Nc2ccc(Cl)cc2)[C@@H](O)[C@H]1O [Compound 1j]		fold reduction in PRMT3 inhibition (compared to 1i): 10 fold
Nc1ncnc2c1ncn2[C@@H]1O[C@H](CSCCNC(=O)Nc2cccc3ccccc23)[C@@H](O)[C@H]1O [Compound 1k]		fold reduction in PRMT3 inhibition (compared to phenyl (1h)): over 40 fold
